These results are taken from patent US11459586B2, “Methods for increasing efficiency of nuclease-mediated gene editing in stem cells” (President and Fellows of Harvard College, priority 2016, dated 2022).

Series [1] deals with human iPSC. Kind of series: mThy1 gene targeting in hiPSC co-transfected with DNA repair or viral inhibitor genes. Type of series: cell-based. The following applies: 0.5 μg plasmid overexpressing the DNA repair gene; 50 μM zVAD and 10 μM SB203580 post transfection (FIG. 9E). The procedure: FIGS. 9A-G. Effects of chemical and genetic inhibitors on mThy1 gene targeting in hiPSC. FIG. 9A. Mouse Thy1 gene targeting scheme. Human iPSC were nucleofected with the mThy1 targeting vector system plasmids and analyzed by flow cytometry five days later. The percentages of mThy1^+hThy1^−, mThy1^+hThy1^+, and mThy1^−hThy1^− cells for each sample (gated on live single cells) are graphed. Lines mark the percentage values for the control sample. FIGS. 9B-9D. Human iPSC were nucleofected with: 2 μg mThy1 targeting vector; 0.5 μg Cas9 plasmid; and 1.5 μg of sgRNA plasmids. The sample was divided into multiple wells and cultured in plain media (mTeSR1+10 μM Y-27632 ROCK inhibitor) supplemented with the indicated chemical inhibitor for three days. 20 μM pifithrin α, 200 μM peptide V5 (VPMLK, SEQ ID NO:31), 200 μM peptide control (IPMIK, SEQ ID NO:32), 50 μM TEMPOL, or the indicated concentrations of SCR7 or L755507 were used. FIG. 9B, mThy1^+hThy1^− (bottom portion of each bar in each graph), mThy1^+hThy1^+ (top portion of each bar in each graph). FIG. 9C, mThy1^+hThy1^− (bottom portion of each bar in each graph), mThy1^+hThy1^+ (top portion of each bar in left and center graphs, middle portion of each bar in right graph), and mThy1^−hThy1^− (top portion of each bar in right graph). […]

The next series has as its system hiPSC. Kind of series: toxicity of chemical inhibitors added to hiPSC culture after nucleofection. The procedure:
Plasmids were purified using the plasmid DNA purification kit sold under the trademark Qiagen ENDOFREE® Plasmid Maxi kit and nucleofected into iPSC cells using the Lonza 4D-Nucleofector X unit (Buffer P3, Program CB-150). For each 20 μl nucleofection reaction, 0.2-0.5×106 iPSC were transfected with up to 4 μg of plasmid DNA. Post-nucleofection, iPSC were plated onto solubilized basement membrane matrix secreted by Engelbreth-Holm-Swarm (EHS) mouse sarcoma cells sold under the trademark […]®-coated wells containing feeder-free cell culture medium sold under the trademark MTESR1™ media with 10 μM Y-27632 plus other chemical inhibitors when noted. Later experiments included 50 μM zVAD-fmk (Bachem) for 1 day and 10 μM SB203580 (Biovision) for 4-5 days post transfection (see FIGS. 5, 6, 11, and 12). For FIG. 6 (ssODN transfection), 200 ng/ml recombinant B 18R (eBioscience), was also added to the culture for 5 days post transfection.
The following inhibitors were added to the hiPSC culture at the concentrations and time periods indicated in the Examples below. • 1. p53 or Bax inhibitors: cyclic pifithrin α (StemCell Technologies); pifithrin (Tocris); peptide V5, peptide control, iMAC1 and iMAC2 (EMD Millipore); N-acetyl cysteine and 4-hydroxy TEMPO (TEMPOL) (Sigma). • 2. […]

For series [2], the system named is human iPSC. The series is described as follows: gene targeting (mThy1, mCD147) in hiPSC transiently transfected with Cas9-IRES-anti-apoptotic gene plasmids. As to conditions: Cas9 Bcl-2 sgRNA plasmids, transient transfection. Type of series: cell-based. The procedure: FIGS. 4A-D. Bcl-2 overexpression increases HR-mediated gene targeting in human iPSC when transiently transfected with the Cas9 nuclease. FIG. 4A. Mouse Thy1 gene targeting scheme. FIG. 4B. Plasmids were constructed to constitutively express Cas9 together with an anti-apoptotic gene (separated by an IRES) under the constitutively active EF1α promoter. Plain human iPSC were nucleofected with 0.5 μg of one of these Cas9 plasmids together with 2 μg of the mThy1 targeting vector and 1.5 μg of plasmids expressing the Thy1 Left, Right, both, or no sgRNAs (pUC19). Five days later, cells were analyzed by flow cytometry. FIG. 4C. Flow cytometry staining for mThy1 and hThy1 for the Cas9 only sample gated on live single cells; the percent of cells in each quadrant is indicated. […] FIG. 4D. Compiled gene editing frequencies. The percent of mThy1^+hThy1^− (bottom portion of each bar in the left, center, and right grafts), mThy1^+hThy1^+ (top portion of bars in the left and center graphs), and mThy1^−hThy1^− (top portion of bars in the right graph) cells is graphed for each indicated sample. Lines mark the percentages for the Cas9 only sample. Results are representative of two independent experiments.
FIGS. 8A-F. Wild type Bcl-2 improves gene targeting at various genomic loci across multiple hiPSC lines. FIG. 8A. Plasmids were constructed to constitutively express the Cas9 nuclease with a form of Bcl-2 (separated by an IRES), and a sgRNA. Three human iPSC lines were nucleofected with 2 μg of mThy1 or mCD147 targeting vector and 2 μg of “Cas9 sgRNA” or “Cas9 Bcl-2 sgRNA” expression plasmid. 5-9 days later, cells were analyzed by flow cytometry. FIG. 8B. Mouse Thy1 gene targeting scheme. FIG. 8C. Single amino acid mutations were generated for the Bcl-2 BH1 (G145A) or BH4 (Y28A) domains. Compiled gene editing frequencies for cells transfected with the Left, Right, or Both Thy1 sgRNAs. The percent of mThy1^+hThy1^− (bottom portion of each set of bars in each graph), mThy1^+hThy1^+ (top portion of left and center sets of bars in each graph and center portion of right set of bars in each graph), and mThy1^−hThy1^− (top portion of right set of bars in each graph) cells among the various samples is indicated. FIG. 8D. Mouse CD147 gene targeting scheme. FIG. 8E. Flow cytometry staining for mCD147 and hCD147 for retrovirally-derived PGP1 hiPSC transfected with “Cas9 sgRNA” or “Cas9 Bcl-2 sgRNA”. Samples are gated on live single cells; the percent of cells in each quadrant is indicated. FIG. 8F. Compiled gene editing frequencies for cells transfected with the Left, Right, or both CD147 sgRNAs. The percent of mCD147^+hCD147^− (bottom portion of each set of bars in each graph), mCD147^+hCD147^+ (top portion of left and center sets of bars in each graph and center portion of right set of bars in each graph), and mCD147^−hCD147^− (top portion of right set of bars in each graph) cells among the three hiPSC lines is indicated.
PCR reactions were done using polymerase sold under the trademark KAPA HIFI™ HotStart polymerase; primers and double-stranded DNA fragments sold under the trademark GBLOCKS® are from IDT. Plasmids were constructed using isothermal assembly, transformed into Stbl3 competent E. coli (Invitrogen), grown at 30° C., and verified by Sanger sequencing (Genewiz). Anti-apoptotic genes were obtained from previously published plasmids: Bcl-2 (Addgene plasmid #8793) and Bcl-xL (#8790) (Cheng et al., 2001); Bcl2A1 (#36973) (Pratt et al., 2012); and Mcl-1 (#21605) (Maurer et al., 2006). The dominant negative p53 sequence from Addgene plasmid #9058 (Hahn et al., 2002) was synthesized as a gBlock. These genes were cloned into the EF1α promoter-Cas9 nuclease plasmid after an IRES.
The U6 promoter-sgRNA (for each sgRNA sequence) was cloned into the EF1α promoter-Cas9 nuclease or EF1α promoter-Cas9 nuclease-IRES-Bcl-2 expression plasmids to form the “Cas9 only sgRNA” or “Cas9 Bcl-2 sgRNA” plasmids used in Examples 6 and 7. […]

“BRCA2: principal HR mediator, overexpressed from plasmid”: in the series with human iPSC [1], the “mThy1 gene targeting efficiency” value is listed as “did not improve mThy1 gene targeting efficiency”.
As to `CC(=O)N[C@@H](CS)C(=O)O` [N-acetyl cysteine], the “toxicity to hiPSC” value with hiPSC (1-5 mM) is “toxicity”.
In the case of “G145A: Bcl-2 with G145A mutation in the BH1 domain, prevents interaction with Bax”, the “mThy1 gene targeting, wild type vs mutant Bcl-2” value with human iPSC [2] is recorded as “intermediate levels of gene targeting”.
In the case of `C[C@H]1CCC/C=C/[C@@H]2C[C@H](O)C[C@H]2[C@H](O)/C=C/C(=O)O1` [Brefeldin A], the “toxicity to hiPSC” value in the series with hiPSC (PGP1 hiPSC, 0.1 μM, data not shown) was “toxic”.
As to “BRCA1: principal HR mediator, overexpressed from plasmid”, the “mThy1 gene targeting efficiency” value in the series on human iPSC [1] was “did not improve mThy1 gene targeting efficiency”.
As for “Y28A: Bcl-2 with Y28A mutation in the BH4 domain”, the “mThy1 gene targeting, wild type vs mutant Bcl-2” value in the series with human iPSC [2] is on record as “intermediate levels of gene targeting”.
